# Data as given in patent EP0273199A2, “Uses of 3,4-diphenyl piperidine derivatives or medicines, 3,4-diphenyl piperidine derivatives, and process for their preparation” (LABORATOIRES HOECHST S.A., priority 1986, dated 1988).
# Several values for one entry are separate records, joined by “and”; a condition that tells them apart may be missing. Equal entries are not always repeated. Structures can show the parent of a compound that is named as a salt. Where two headings read alike, the source gives them in different places.
# Key:
# Maus [1] = experiment: Hot plate test (licking and jumping), analgesia; format: in vivo
# Experimental: Heizplattentest: Lecken und Springen, wie von Jacob und Blozovski beschrieben (Arch. Int. Pharmacodyn. 133, 296-209, 1961).
# Die in Sekunden ausgedrückten Reaktionszeiten auf einer Heizplatte werden unter Berücksichtigung des Leckens der Vorderpfoten und Springen des Tieres als Kriterien bewertet. Die beiden Reaktionen werden am selben, anfänglich untrainierten Tier mit einer maximalen Ansprechzeit (Obergrenze) von 240 Sekunden beobachtet. Die Temperatur der Platte wird auf 56,6°C gehalten.
# Morphin als positive Kontrolle wird subkutan und die übrigen Substanzen (mg/kg) werden intraperitoneal 30 Minuten vor dem Test verabreicht. Positives Ansprechen zeigt sich in einer Zunahme der Reaktionszeit.
# Wird der schadensverhütenden Wirkung eine Substanz durch Naloxon entegengewirkt, so kann man schließen, daß die Substanz tatsächlich eine analgetische Wirkung besitzt.
# [2] = test system: durch Reserpin induzierten Hypothermie; experiment: Antireserpine activity (reserpine-induced hypothermia); format: in vivo, Maus
# Experimental: Zur Zeit 0 erhalten die Mäuse intraperitoneal Reserpin (2,5 mg/kg).
# 4 Stunden danach, wenn die Hypothermie genügend stark erscheint (30 bis 33°C), verabreicht man die verschiedenen zu untersuchenden Verbindungen i.p. oder p.o. Alle 30 Minuten über einen Zeitraum von 2 Stunden mißt man die Rektaltemperatur mit einer auf konstante Tiefe eingeführten, ein Thermoelement tragenden Sonde. Die Rektaltemperatur der mit verschiedenen erfindungsgemäßen Verbindungen behandelten Tiere wird mit der Temperatur einer Kontrollgruppe verglichen, die destilliertes Wasser auf die gleiche Weise wie die untersuchten Verbindungen erhält.
# Die Akinesie (fehlende Bewegungen) und Ptose (Öffnungsgrad des Augenlids von 0 bis 4 nach Rubin u.a 1957) werden ebenfalls alle 30 Minuten über einen Zeitraum von 2 Stunden bewertet.
# Die eine antidepressive Aktivität besitzenden Produkte wirken der durch Reserpin induzierten Hypothermie entgegen. Für jede Dosis der verabreichten Verbindung berechnet man die prozentuale Hemmung der Hypothermie.
# Motoraktivität = experiment: Actimetry (motor activity, photocell actimeter); format: in vivo, Maus; details: mouse; direction of change of motor activity
# From the text: Die Motoraktivität wird mittels Photozellenaktimetern bestimmt (Boissier und Simon, Arch. Int. Pharmacodyn. 1965, 158, 212-221).
# Die Mäuse (10 oder ein Vielfaches von 10 pro Gruppe) werden unmittelbar nach i.p. Verabreichung der zu untersuchenden Verbindungen in das Aktimeter eingesetzt. Die Motoraktivität wird danach bis zur 60. Minute gemessen. De Zähler werden nach 30 Minuten abgelesen und dann auf 0 zurückgestellt und im Verlauf von 30 Minuten alle 10 Minuten abgelesen.
# Die Beweglichkeit der mit den verschiedenen Verbindungen behandelten Tiere wird mit derjenigen einer destilliertes Wasser erhaltenden Kontrollgruppe verglichen.
# Die eine psychostimulierende Aktivität besitzenden Produkte verursachen eine Zunahme der Beweglichkeit.
# Apomorphin 16 mg/kg = experiment: Antiapomorphine activity (apomorphine 16 mg/kg s.c., hypothermia); format: in vivo, Maus
# Experimental: Zur Zeit 0 nach Ausgleich der Reaktaltemperaturen werden die Mäuse (6 pro Gruppe) in deren Beobachtung gestattende Einzelkäfige (11 x 3,5 x 4 cm) eingeetzt. 30 Minuten nach i.p. bzw. p.o. Verabreichung der Testsubstanz erhalten sie Apomorphin subkutan in einer Dosis von 16 mg/kg. Die Rektaltemperatur wird 30 Minuten nach dem Apomorphin gemessen. Die Kontrolltiere erhalten destilliertes Wasser statt der zu untersuchenden Verbindungen. Die bei diesen Kontrolltieren, die 16 mg/kg Apomorphin erhalten haben, beobachtete Hypothermie liegt im Durchschnitt bei 33°C. Für jede Verbindungsdosis berechnet man die prozentuale Hemmung der Hypothermie.
# Maus [3] = experiment: Tail suspension test; format: in vivo; details: ip; mouse, i.p.; footnote of Tabelle 1; read-out: tail suspension test= positiv ab
# From the text: Schwanzaufhängungstest an der Maus wie von Stéru u.a. beschrieben (Psychopharmacology 85, 367-370, 1985).
# Die Substanzen werden intraperitoneal 30 Minuten vor dem Test verabreicht und die Tiese isoliert (10 Mäuse pro Dosis).
# Man bewertet die Dauer der Unbeweglichkeit, ausgedrückt in Sekunden über die 6 Minuten des Tests. Man untersucht auf eine Verkürzung dieser Unbeweglichkeitszeit.
# Toxizität des Yohimbins = experiment: Potentiation of yohimbine toxicity; format: in vivo, Maus; details: for minimal effective dose: Mus musculus, ip; for Erste wirksame Dosis Yohimbin: mouse, i.p.
# Experimental: Wirkung auf die Toxizität des Yohimbins
# Zur Zeit 0 erhalten die Mäuse entweder destilliertes Wasser oder verschiedene zu untersuchende Verbindungen i.p. 30 Minuten danach verabreicht man ihnen subkutan eine infratoxische Dosis von 25 mg/kg Yohimbinchlorhydrat.
# Die Mortalität wird jede Stunde über einen Zeitraum von 4 Stunden verfolgt und dann nach 24 Stunden notiert.
# Die eine antidepressive Aktivität besitzenden Produkte verursachen eine Potenzierung der Toxizität des Yohimbins.
# [4] = Mus musculus, ip, read-out: Erste wirksame Dosis Reserpin, mouse, i.p., only or lowest value of the cell
# [5] = Mus musculus, ip, read-out: Erste wirksame Dosis Apomorphin 16 mg/kg, mouse, i.p., only or lowest value of the cell
# [6] = ip, mouse, i.p., only or lowest value of the cell, read-out: Erste wirksame Dosis Reserpin
# [7] = ip, mouse, i.p., only or lowest value of the cell, read-out: Erste wirksame Dosis Apomorphin 16 mg/kg
# [8] = mouse, i.p., only or lowest value of the cell
# [9] = Mus musculus, read-out: Erste wirksame Dosis Apomorphin 16 mg/kg, mouse, further value in the same cell, route not stated (lowest = i.p.; p.o. also tested)
# [10] = read-out: Erste wirksame Dosis Yohimbin, mouse, i.p., only or lowest value of the cell
# [11] = only or lowest value of the cell
# [12] = mouse, Tabelle 5a, Naloxon alone 0,5 mg/kg
Structure (SMILES),"minimal effective dose [2, 4]",Aktimetrie (Motoraktivität),minimal effective dose (Apomorphin 16 mg/kg; [5]),"Erste wirksame Dosis Reserpin [2, 8]",minimal effective dose (Toxizität des Yohimbins; [10]),Erste wirksame Dosis Apomorphin 16 mg/kg (Apomorphin 16 mg/kg; [8]),further results
"CN1CC[C@]23c4c5ccc(O)c4O[C@H]2[C@@H](O)C=C[C@H]3[C@H]1C5 [Morphin, reference compound]",,,,,,,"Pfotenlecken (Maus [1]; in vivo, sc, 2 mg/kg): 8,1 ± 0,6 p < 0,01 Sekunden; Sprünge (Maus [1]; in vivo, sc, 2 mg/kg): 158 ± 17 p < 0,01 Sekunden"
"Clc1ccc(C2CNCCC2c2ccccc2)cc1 (stereo not drawn) [8 (Base), trans-3-(4-Chlorphenyl)-4-phenylpiperidin]",8 mg/kg,↘,16 mg/kg,,,,
"COc1ccc([C@@H]2CCNC[C@H]2c2ccccc2)cc1 (racemic) [Beispiel 2, trans-4-(4-Methoxyphenyl)-3-phenylpiperidinchlorhydrat]",,↘,,,,,"minimal effective dose (Maus [3]): ≥ 8 mg/kg; minimal effective dose [2, 6]: 4 mg/kg; minimal effective dose (Apomorphin 16 mg/kg; [7]): 1 mg/kg; minimal effective dose (Apomorphin 16 mg/kg; mouse, further value in the same cell, route not stated (lowest = i.p.; p.o. also tested), read-out: Erste wirksame Dosis Apomorphin 16 mg/kg): 2 mg/kg"
"Cc1ccc([C@@H]2CCNC[C@H]2c2ccccc2)cc1 (relative stereo) [10 (Base), trans-4-(4-Methylphenyl)-3-phenylpiperidin]",,↘,16 mg/kg,16 mg/kg,16 mg/kg,,minimal effective dose (Apomorphin 16 mg/kg; [9]): 32 mg/kg
"c1ccc([C@@H]2CCNC[C@H]2c2ccccc2)cc1 (relative stereo) [21 (HCl-Salz), trans-3,4-Diphenylpiperidin]",,↗,,4 mg/kg,,4 mg/kg,Erste wirksame Dosis Yohimbin (Toxizität des Yohimbins; [11]): 16 mg/kg
"Clc1ccc(C2CNCCC2c2ccccc2)cc1Cl (stereo not drawn) [Beispiel 13, trans-3-(3,4-Dichlorphenyl)-4-phenyl-piperidin-maleinat]",8 mg/kg,↘,4 mg/kg,,16 mg/kg,,
"CC(=O)Oc1ccc([C@@H]2CCNC[C@H]2c2ccccc2)cc1 (racemic) [Beispiel 11, trans-4-(4-Acetoxyphenyl)-3-phenylpiperidinchlorhydrat]",,,,,16 mg/kg,,"minimal effective dose [2, 6]: 4 mg/kg; minimal effective dose (Apomorphin 16 mg/kg; [7]): 1 mg/kg"
"Clc1ccc(C2CNCCC2c2ccccc2)cc1 (stereo not drawn) [8 (HCl-Salz), trans-3-(4-Chlorphenyl)-4-phenylpiperidin]",,↘,,4 mg/kg,16 mg/kg,8 mg/kg,
"C=CCN1CC[C@]23c4c5ccc(O)c4O[C@H]2C(=O)CC[C@@]3(O)[C@H]1C5 [Naloxon, reference compound]",,,,,,,"Pfotenlecken (Maus [1]; [12]): 5,5 ± 0,3 Sekunden and 5,2 ± 0,3 Sekunden; Sprünge (Maus [1]; [12]): 63 ± 6 Sekunden and 67 ± 5 Sekunden"
Clc1ccc([C@@H]2CCNC[C@H]2c2ccccc2)cc1Cl [15 (Base)],,↗,,"0,5 mg/kg",,"0,5 mg/kg",Erste wirksame Dosis Yohimbin (Toxizität des Yohimbins; [11]): 4 mg/kg
"Cc1ccc([C@@H]2CCNC[C@H]2c2ccccc2)cc1 (relative stereo) [10 (HCl-Salz), trans-4-(4-Methylphenyl)-3-phenylpiperidin]",,↘,,4 mg/kg,,16 mg/kg,"minimal effective dose ([2]; Mus musculus, read-out: Erste wirksame Dosis Reserpin, mouse, further value in the same cell, route not stated (lowest = i.p.; p.o. also tested)): 16 mg/kg"
Clc1ccc([C@@H]2CCNC[C@H]2c2ccccc2)cc1 [Beispiel 18],0.5 mg/kg,↗,0.5 mg/kg,,1 mg/kg,,minimal effective dose (Apomorphin 16 mg/kg; [9]): 2 mg/kg
"Oc1ccc([C@@H]2CCNC[C@H]2c2ccccc2)cc1 (racemic) [7 (1.Stufe), trans-4-(4-Hydroxyphenyl)-3-phenylpiperidin-bromhydrat]",32 mg/kg,↘,0.5 mg/kg,,4 mg/kg,,"minimal effective dose (Toxizität des Yohimbins; read-out: Erste wirksame Dosis Yohimbin, mouse, further value in the same cell, route not stated (lowest = i.p.)): 16 mg/kg"
